Structure (SMILES)	melting point
CCCCc1ncc(/C=C(\Cc2cccs2)C(=O)O)n1Cc1ccc(C(=O)OC)cc1	217 to 220 °C
COc1cc2c(cc1OC)CC(C(=O)O)C2	133 to 135 °C
CCCCCCCCOc1cc(N)c(OCOC)c(OC)c1	56 to 57 °C
CC(=O)NNc1ccnc2c(NC(=O)c3ccccc3[N+](=O)[O-])cccc12	232 to 235 °C
C#Cc1ccc2c(c1)C(=O)N(C(C)(C)C)CC(=O)N2	216 to 219 °C
COc1cc(-c2nc3ccc(OC(F)(F)F)cc3[nH]2)ccc1O	188 to 190 °C
COC(=O)c1nc(C)n2c1CNC(c1ccccc1)c1cc(Cl)ccc1-2 (stereo not drawn)	233 to 235 °C
COc1ccc(C(=O)Nc2ccccc2)cc1Nc1cccc(C(F)(F)F)c1	183 to 184 °C
CC(C)C[C@@H](C(=O)N1CCN(C(c2ccc(F)cc2)c2ccc(F)cc2)CC1)N1CCOCC1	55 to 63 °C
COc1ccc(C)cc1NC(=O)Nc1ccc(N2CCN(C(=O)Nc3c(C)cccc3C(=O)O)CC2)cc1	159 to 160 °C
CCCCNC(=O)NS(=O)(=O)c1ccc(CCNC(=O)N2CC(C)=C(C)C2=O)cc1	198 to 200 °C
O=C1CC2CSc3ccccc3C2=NN1c1ccc(Cl)cc1 (stereo not drawn)	146 to 147 °C
Cc1ccc(C(=O)NCC(O)CO)cc1-n1c(C)cc(OCc2ccccc2CNC(=O)Nc2cc(C(C)(C)C)nn2-c2ccc(O)c(Cl)c2)c(Cl)c1=O (stereo not drawn)	173 to 175 °C
Cn1cnc2c1ccn1c(=O)c(-c3ccc(OCc4ccccc4)cc3)cc(C(=O)O)c21	227 to 229 °C
CC(=O)OC1CSC(Oc2cccc3ccoc23)C(OC(C)=O)C1OC(C)=O (stereo not drawn)	152 °C
CC1(C)Cc2cc(N)c3c(c2C(c2ccccc2)=N1)CC(C)(C)O3	158 to 162 °C
CCCCOC(=O)c1ccc(Cl)nn1	110 to 111 °C
COC(=O)C1=CN(c2ccc(O)cc2)C(C2CC=CCC2)CC1=O (stereo not drawn)	155 to 157 °C
CCc1cccc(C)c1NCN1CCOC1=O	56 to 57.5 °C
CC(C)c1ccc(OC(Cc2ccc(OCCNC(=O)c3ccc(-c4ccc(N(C)C)cn4)cc3)cc2)C(=O)O)cc1 (stereo not drawn)	150 to 151 °C
COc1cc2c(Nc3ccc(Cl)cc3F)ncnc2cc1OCc1ccnc(C#N)c1	209 to 213 °C
CCOC(=O)c1nnc(NS(=O)(=O)c2ccc(NC(C)=O)cc2)s1	201 to 202 °C
Cc1nc(-c2ccc(C(F)(F)F)cc2)oc1CSc1ccc(CC(=O)O)cc1Cl	158 to 160 °C
O=C(c1ccc(F)cc1)C1CCN(CCCn2c(=O)[nH]c3cc(Cl)ccc32)CC1	164 °C
CC1CN(c2ccccn2)CCN1Cc1nc2ccccc2[nH]1 (stereo not drawn)	151 to 153 °C

Structure (SMILES)	melting point
CCCCC(C)OC(=O)Nc1ccc(-c2ncn(-c3ccc(OC(F)(F)F)cc3)n2)cc1 (stereo not drawn)	111 to 113 °C
O=C(c1ccccc1)c1ccc([N+](=O)[O-])c(C(=O)NCc2ccccc2)c1	167 °C
CC(=O)NC[C@H]1CN(c2ccc(N3CCC(=CC#N)CC3)c(F)c2)C(=O)O1	159 to 160 °C
CC1(S(=O)(=O)N2C[C@@H](Cl)C[C@@H]2CCl)C=CC=CC1 (stereo partly drawn)	103 to 105 °C
CCOC(=O)c1sc(Cl)nc1-c1ccc(F)cc1	113 to 114 °C
O=C=Nc1cc(OC(=O)Oc2cc(N=C=O)c(F)cc2Cl)c(Cl)cc1F	108 to 109 °C
COC(=O)c1cc(-c2ncnc(C(F)F)c2Cl)c(F)cc1Cl	100 to 101 °C
O=C(Nc1ccc(OCc2ccccc2)cc1)C1CC1	162 °C
CCOC(=O)c1cc(-c2ccc(C(F)(F)F)cc2)n[nH]1	162 °C
O=C(NCCCN1CCCCC1)c1cccc(Nc2ncnc3[nH]cc(C(=O)c4ccccc4)c23)c1	> 300 °C
Cc1c(C)c(N2CCN(c3ccc(S(C)(=O)=O)cc3)CC2)c(C)c2c1OC(C)C2 (stereo not drawn)	228 to 233 °C
COc1ccc(S(=O)(=O)N2CSCC2=O)cc1	129 to 130 °C
O=C(O)Cn1cccc(O)c1=O	203 to 205 °C
O=C(Nc1ccccc1)c1cscc1Cl	119 to 121 °C
O=C(NCCN1C=CC(c2ccccc2)=CC1)c1ccccc1S(=O)(=O)O	272 to 274 °C
O=C(NCCc1ccc(Cl)cc1)c1c(Cl)ccc2nc(N3CCC(C(=O)O)CC3)ccc12	231 to 234 °C
CN1C(=O)C(=Cc2ccc(O)c(C(C)(C)C)c2)SC1=S	> 230 °C
CC(=O)Nc1nc(CCc2ccc(NC3=NCCN3)cc2)c(Cc2ccc(S(C)(=O)=O)cc2)s1	139 to 140 °C
O=C(O)CCCC12CCC(=O)N1C(=O)CC2	178 to 180 °C
COc1cc(C(=O)N(C(C)C)C2CCCCC2)ccc1Cn1ccc2ncnc-2c1C	185 to 187 °C
Nc1nc2ccccc2c2c1ncn2CCCCS(=O)(=O)c1ccccc1	175 to 177 °C
Cc1c(Cl)c(C(=O)O)cc(Cl)c1C(=O)O	169 to 171 °C
C#CCn1c(C(F)(F)F)c(C=O)c2ccccc21	106 °C
CCC(C)(C)c1cc(-c2cccc(C=C3SC(N4CCCC4)=NC3=O)c2)ccc1O	282 to 283 °C
CC(C)(C)OC(=O)N1CCc2cc([N+](=O)[O-])ccc2C1	138 to 141 °C

Structure (SMILES)	melting point
Cc1c(-c2ccc(O)cc2)sc(C#N)c1-c1ccc(O)cc1	282 to 284 °C
COc1ccc2[nH]c(CC(C)C)c(C=O)c2c1	146 to 147 °C
N#CC(C#N)=C1N(CCCN2CCCCC2)CCN1CCN1CCCCC1	88 to 89 °C
O=C(Cc1ccccc1)c1cc2c(c(Cl)c1Cl)OC(C(=O)O)C2 (stereo not drawn)	146 °C
Nc1cc(Cl)c(S(N)(=O)=O)cc1N	216 °C
CCOC(=O)C1=C(COCC(C)(O)c2ccco2)NC(C)=C(C(=O)OC)C1c1cccc(Cl)c1Cl (stereo not drawn)	88 to 90 °C
CCOC(=O)c1cc(Cl)ccc1N	80 °C
O=C(O)c1cc(C#Cc2ccccc2)c(C(=O)O)cc1C#Cc1ccccc1	> 360 °C
CCOC(=O)C(NC(C)=O)c1csc(NC(C)=O)n1 (stereo not drawn)	149 to 150 °C
O=S(Cc1ccccc1)c1nc2cnccc2[nH]1 (stereo not drawn)	190 to 193 °C
CC(=O)Nc1ccc2c(c1)N1CCCN=C1S2	178 °C
CCCCCCCCCCCCc1nc(NC(=O)Nc2c(C(C)C)cccc2C(C)C)n[nH]1	154 to 164 °C
COc1ccc2cc3c(Cl)n[nH]c3nc2c1	296 to 297 °C
Cc1nc(N(C)c2cccnc2)sc1-c1ccnc(Nc2ccc(N3CCOCC3)cc2)n1	194 to 195 °C
COc1ccc(S(=O)(=O)Nc2c(Nc3ccccc3)ncnc2Nc2ccccc2)cc1	149 to 151 °C
CCOn1c(SC)n[nH]c1=O	99 °C
COC(=O)[C@H](Cc1ccc([N+](=O)[O-])cc1)NC(=O)C1(CCCCS(C)(=O)=O)CCCC1	40 to 44 °C
COc1ccc2c(=O)c(-c3ccc(C)cc3)c(SCc3ccncc3)oc2c1	157 to 160 °C
COc1ncc(NC(=S)NC(=O)c2ccccc2)c(OC)n1	182 °C
CC(=O)OCc1ccc(N)cc1	83 to 84 °C
CCOC(=O)CNC(=O)C[C@H]1O[C@@H](c2ccccc2)c2cc(Cl)ccc2N(C(C)C)C1=O (relative stereo)	188 to 190 °C
CCC(CC)(C(=O)OC1CC(C)(C)N(OCc2ccccc2)C(C)(C)C1)C(=O)OC1CC(C)(C)N(OCc2ccccc2)C(C)(C)C1	122 to 123 °C
CCS(=O)c1c(C#N)nn(-c2c(Cl)cc(C(F)(F)F)cc2Cl)c1NCCSC (stereo not drawn)	111 to 113 °C
CC(C)(Cc1ccccc1)C(NC(=O)c1ccc(Cl)cc1)NC(=NC#N)Nc1cccnc1 (stereo not drawn)	182 to 183 °C
CC(C)CC(NC(=O)N1CCCCCC1)C(=O)NC(Cc1ccc(C#Cc2ccccc2)cc1)C(=O)NC(C)(C)C (stereo not drawn)	115 to 117 °C

Structure (SMILES)	melting point
CCCC(=O)c1cnc2c(OC)cccc2c1Nc1c(C)cc2c(c1C)OCO2	150 to 152 °C
COc1ccc(CC(=O)c2ccccc2)cc1OC	80 to 81 °C
O=C1CCC(n2cnc(-c3ccc(F)cc3)c2-c2ccnc(OCCO)n2)CC1	203 to 205 °C
CCn1c(=O)c2c(nc(/C=C/c3ccc(OC)c(C)c3C)n2C)n(CC)c1=O	208 °C
CS(=O)(=O)c1cc(C(=O)O)cc(Cl)c1Nc1ccccc1	187 to 189 °C
O=C(O)c1c2c(nc3ccc(F)cc13)-c1ccc(-c3ccc(F)cc3F)cc1CCC2	> 300 °C
CC(C)c1cc(C(C)C)c(CC(=O)NS(=O)(=O)Oc2c(C(C)C)cc(C=CC#N)cc2C(C)C)c(C(C)C)c1	157 to 160 °C
O=C(CCN1CCCC1)Nc1ccc2c(c1)C(=O)c1cc(NC(=O)CCN3CCCC3)ccc1C2=O	233 °C
N=C(N)Nc1nc2c(s1)CCN(C(=O)c1ccc(NC(=O)c3ccccc3-c3ccccc3)cc1)c1ccccc1-2	> 250 °C
CC(C)(O)c1ccc(-c2cnc3[nH]c(=O)n(CC4CCCCC4)c3n2)cc1	226 to 228 °C
c1ccc(CN2C(=NCCCn3ccnc3)c3cccc4cccc2c34)cc1	90 to 93 °C
NCCCNc1nc2c(NCc3ccccc3)ncnc2n1C1OC(CO)C(O)C1O (stereo not drawn)	72 to 76 °C
COC(=O)c1ccc(CCc2cnc3nc(N)nc(O)c3c2)cc1	> 300 °C
CC(Nc1ccccc1)c1ccc(C(C)Nc2ccccc2)cc1 (stereo not drawn)	169 to 170 °C
COC(=O)C1(N2CCCCC2)CCN(Cc2ccccc2)CC1	84.7 °C
CCN1CCN(c2cc(-c3ccccc3)c3ccccc3n2)CC1	87 to 88 °C
CC(=O)NC1CC(C)(C)NC(C)(C)C1	100 to 102 °C
C=C1CC(COc2cccc3cccnc23)(c2ccc(Cl)cc2)OC1=O (stereo not drawn)	107 to 108 °C
Nc1cccc(COc2cccc3c2CN(C2CCC(=O)NC2=O)C3=O)c1 (stereo not drawn)	109 to 113 °C
COC(=O)C(Cc1ccc(OC)c(OC)c1)NNc1ccc(C)c(C)c1 (stereo not drawn)	148 to 150 °C
Cc1noc2cc3c(cc12)C1(CO3)C(=O)N(CCC(C)C)c2ccccc21 (stereo not drawn)	135 to 138 °C
CC(C)n1cc(C(=O)O)c2ccc(F)cc21	177 to 180 °C
OCC(COCCCCCCCCOc1ccc(-c2ccccc2)cc1)OCc1ccccc1 (stereo not drawn)	48 to 50 °C

Source: a melting point compilation (Tetko et al.; mined from patent text by program, amines drawn as free bases though some values may be those of a salt)
